Test system: different microbes (Bacillus cereus, Staphylococcus aureus, Pseudomonas aeruginosa, Escherichia coli, Aspergillus flavus, Chrysosporium keratinophilum)
Assay: Antimicrobial testing, agar plate disc-diffusion method
Assay type: cell-based
Details: screened against gram-positive and gram-negative bacteria and fungi; result in words only, no inhibition zones printed
Experimental: The agar plate disc-diffusion method was applied. Sterilized filter papers (6 mm in diameter) were wetted with 10 μL of a solution of 4-(4,5-bis(4-bromophenyl)-2-(4-chlorophenyl)-1H-imidazol-1-yl)butanoic acid (V) to be tested, containing 10 mg/mL in DMSO, and the discs were allowed to air dry. The discs were then placed onto the surface of agar plates (nutrient agar for bacteria and Sabouraud's dextrose agar for fungi) seeded with the test organism. Each plate contained 15 mL of the agar medium, previously seeded with 0.2 mL of the broth culture of each organism pregrown for 18 hours. The plates were incubated at 37° C. for 48 hours, and 72 hours for fungi. The inhibition zones was measured in mm. Discs impregnated with DMSO were used as a control, and its inhibition zone was subtracted from the tested compound actual inhibition zone.

SMILES: O=C(O)CCCn1c(-c2ccc(Cl)cc2)nc(-c2ccc(Br)cc2)c1-c1ccc(Br)cc1 [V, 4-(4,5-bis(4-bromophenyl)-2-(4-chlorophenyl)-1H-imidazol-1-yl)butanoic acid]
- antimicrobial activities against different microbes: excellent antimicrobial activities
